Reference: patent US20230381185A1, “NOVEL FORMULATIONS FOR ORAL ADMINISTRATION OF THERAPEUTIC AGENTS TO THE GASTROINTESTINAL TRACT” (3-D Matrix, Ltd., priority 2022, published 2023)
“Also recorded” adds a separate entry of the source. Like-named read-outs stand apart in the source and are kept apart here.

Assays:
DSS-induced colitis mice = experiment: Efficacy in DSS-induced colitis (DAI, colon weight/length, MPO, histology, immune cells); format: in vivo
Excerpt: An additional benefit of this nanocomposite system is that it can be dried and then reconstituted in vivo or under in vivo-like conditions without substantial alteration of its properties. The dried nanocomposite offers the advantage of a long-duration storage, but, perhaps more importantly, the dried nanocomposite powder can be encapsulated in various types of capsules known in the art for a controlled and localized delivery in precise part of the GIT with systems differentiated in the basis of GIT transit times, pH changes, bacterial enzymes, mucoadhesion, nanotechnologies and disease-associated triggers. One such capsule, designed for release of hydrated RADA16 hydrogel doped with a macromolecular dye, fluorescein isothiocyanate—dextran 4 kDa (FD4), mostly in the large intestine, has been described by Eleftheriadis et al. (Pharm. Development Tech. 25(4): 1-23 (2020)). That reference discloses a pH sensitive hydroxypropyl methylcellulose-phthalate (HPMCP)-based 3D-printed capsule. Other encapsulation materials suited to the present invention include poly(meth) acrylate polymers and members of the Eudragit family (Chu, J. N. and Traverso, G., Foundations of gastrointestinal-based drug delivery and future developments, Nature Reviews: Gastroenterology & Hepatology (2021) doi: 10.1038/s41575-021-00539-w). The present invention is based, at least, on the following findings/parameters: • 1. A nanocomposite based on the physical mixture of a preformed nanosystem (namely nanoemulsion, NE) loaded with a drug intended for the treatment of IBD, and a preformed self-assembling-peptide ([…])-based hydrogel (PURASTAT) was created at different concentrations of SAP. • 2. The creation of nanocomposites characterized by two different concentrations, led to the development of systems with different structural properties, leading to differences in the drug-release behaviours. • 3. […] The use of nanocomposite to test the therapeutic efficacy of the drug on an IBD-mouse model brought results based on different technique, detailed herein. • 5. Certain disease factors were improved by administration of PS hydrogel/NE mixture alone, even in the absence of any active ingredients. Disease activity index (DAI) score, used to evaluate the DSS-induced colitis. […] For each parameter a score from 0 to 4 was attributed and afterwards divided by three, resulting in the total DAI score ranging from 0 (unaffected) to 4 (severe colitis) (Gonçalves, F. da C., Schneider, N., H. M.-A. S. & 2013, U. Characterization of Acute Murine Dextran Sodium Sulfate (DSS) Colitis: Severity of Inflammation is Dependent on the DSS Molecular Weight and Concentration. Acta Sci. Vet. 41, 1-9 (2013)). Colon length and weight, which is often reduced in cases of inflammation (Biton, I. E. et al. Assessing Mucosal Inflammation in a DSS-Induced Colitis Mouse Model by MR Colonography. Tomogr. (Ann Arbor, Mich.) 4, 4-13 (2018)). The activity of the enzyme myeloperoxidase (MPO), which is a direct indicator of neutrophils infiltration into the colonic mucosa, and thus an important marker of inflammation (Hansberry, D. R., Shah, K., Agarwal, P. & Agarwal, N. Fecal Myeloperoxidase as a Biomarker for Inflammatory Bowel Disease. Cureus 9, (2017)). Histomorphologic evaluation by HPS stain (hematoxylin phloxine saffron stain), similar to H&E. HPS can differentiate between the most common connective tissue (collagen) and muscle and cytoplasm by staining the former yellow and the latter two pink, unlike an H&E stain, which stains all three pink. Immunohistochemistry for the detection of CD45 positive cells.
Efficacy of drug-loaded nanocomposites compared to a variety of controls was tested using mice of the same strain used in Example 5. Based on the results from the Stage 1 in vivo studies already described, all mice (except for the G1 healthy control group) were given 3% v/v DSS in drinking water for 4 days. After 4 days all mice were given normal drinking water (i.e., no DSS). […]

[1] = cited from earlier work
[2] = test system: liver punch hole injuries in pigs; details: cited from earlier work; for inflammatory cell infiltration due to the SAP: short-term study
[3] = test system: oozing wounds in the walls of the stomach and/or duodenum of pigs; details: endoscopic administration, no control group; cited from earlier work

C[C@@H]1CCN(C(=O)CC#N)C[C@@H]1N(C)c1ncnc2[nH]ccc12 [TFC, Tofacitinib]
Myeloperoxidase (MPO) activity in colonic tissue (DSS-induced colitis mice; indicator of neutrophil infiltration): slight improvement | Th2 or Treg populations (DSS-induced colitis mice; mouse, in vivo): did not affect | infiltration of lymphocytes / CD45+ cells (DSS-induced colitis mice; mouse, in vivo): reduced infiltration of lymphocytes | proportion of Th1 and Th17 proinflammatory populations (DSS-induced colitis mice; mouse, in vivo): significantly reduced | total amount of T cells (CD3+) (DSS-induced colitis mice; mouse, in vivo): strongly reduced | colon weight/colon length ratio (g/cm) (DSS-induced colitis mice; sacrifice at day 10, relative to G2 untreated IBD mice): statistically significant improvement; also recorded: significantly prevented | epithelium and muscularis structure / architecture (histology) (DSS-induced colitis mice; with respect to G2): considerable amelioration

Ac-RADARADARADARADA-CONH2 [RADA16]
storage modulus G′ ([1]; 2.5% in water): about 350 Pa | inflammatory cell infiltration due to the SAP [2]: absence

IEIKIEIKIEIKI [IEIK13]
storage modulus G′ ([1]; 1% in water): ~700 Pa | hemostasis [3]: hemostasis was achieved in both heparinized and non-heparinized animals | hemostasis ([2]; compared to RADA16): statistically significant improvement | inflammatory cell infiltration due to the SAP [2]: absence

KLDLKLDLKLDL [KLD12]
storage modulus G′ ([1]; 1.5% in water): about 350 Pa
